Ki app and IC50 data for 11 compounds are collected here from ChEMBL document CHEMBL1123274, “Azasteroids: structure-activity relationships for inhibition of 5 alpha-reductase and of androgen receptor binding” (J Med Chem, 1986).

Test [1] addresses T1, Steroid 5-alpha-reductase (Rattus norvegicus, UniProt P24008+P31214).
T1 sequence (P24008 whole entry): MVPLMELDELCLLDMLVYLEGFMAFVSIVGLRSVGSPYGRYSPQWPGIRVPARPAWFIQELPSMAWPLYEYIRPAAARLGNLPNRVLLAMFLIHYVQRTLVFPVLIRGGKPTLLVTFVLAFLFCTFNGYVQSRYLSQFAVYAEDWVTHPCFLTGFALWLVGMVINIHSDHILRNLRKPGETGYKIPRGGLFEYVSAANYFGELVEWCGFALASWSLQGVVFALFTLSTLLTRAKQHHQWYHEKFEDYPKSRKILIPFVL
T1 sequence (P31214 whole entry): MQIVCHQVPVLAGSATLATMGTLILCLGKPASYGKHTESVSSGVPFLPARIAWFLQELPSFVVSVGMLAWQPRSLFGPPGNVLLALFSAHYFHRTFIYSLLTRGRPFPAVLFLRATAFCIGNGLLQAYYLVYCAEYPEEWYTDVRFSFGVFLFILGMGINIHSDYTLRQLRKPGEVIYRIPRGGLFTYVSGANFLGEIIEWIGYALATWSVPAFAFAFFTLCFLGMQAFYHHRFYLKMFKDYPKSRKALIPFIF
Kind of test: Apparent inhibitory constant value for rat prostatic steroid 5-alpha reductase was determined. It is filed as protein assay.

Test [2] concerns the target T1, Steroid 5-alpha-reductase. Briefly: In vitro inhibitory activity against rat prostatic steroid 5-alpha-reductase. It is filed as protein assay.
The next test has as its target T2, Androgen receptor (Rattus norvegicus, UniProt P15207).
T2 sequence (P15207 whole entry): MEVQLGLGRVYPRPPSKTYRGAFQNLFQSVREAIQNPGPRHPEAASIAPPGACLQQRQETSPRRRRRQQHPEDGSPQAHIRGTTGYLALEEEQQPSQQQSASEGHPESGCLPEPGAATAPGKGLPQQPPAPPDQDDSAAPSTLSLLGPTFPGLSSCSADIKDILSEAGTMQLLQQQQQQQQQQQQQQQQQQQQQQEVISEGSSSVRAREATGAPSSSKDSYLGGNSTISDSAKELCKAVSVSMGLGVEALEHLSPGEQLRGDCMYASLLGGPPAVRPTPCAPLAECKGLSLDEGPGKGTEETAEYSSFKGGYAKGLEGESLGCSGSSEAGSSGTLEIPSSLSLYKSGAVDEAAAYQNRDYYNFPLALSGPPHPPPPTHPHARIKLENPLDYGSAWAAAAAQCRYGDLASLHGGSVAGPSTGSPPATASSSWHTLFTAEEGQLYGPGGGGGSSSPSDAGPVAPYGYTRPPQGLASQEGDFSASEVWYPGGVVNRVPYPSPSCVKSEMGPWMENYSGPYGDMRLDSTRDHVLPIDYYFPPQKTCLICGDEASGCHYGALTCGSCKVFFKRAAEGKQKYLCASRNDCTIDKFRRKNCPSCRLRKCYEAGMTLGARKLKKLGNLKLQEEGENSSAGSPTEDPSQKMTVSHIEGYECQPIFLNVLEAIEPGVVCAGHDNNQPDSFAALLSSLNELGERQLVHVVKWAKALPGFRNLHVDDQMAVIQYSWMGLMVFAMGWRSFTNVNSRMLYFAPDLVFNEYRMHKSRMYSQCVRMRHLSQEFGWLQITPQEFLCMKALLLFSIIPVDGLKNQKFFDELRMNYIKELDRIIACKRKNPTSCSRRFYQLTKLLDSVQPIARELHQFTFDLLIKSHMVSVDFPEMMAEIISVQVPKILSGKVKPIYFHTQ
Kind of test: In vitro antagonist activity against rat prostatic androgen receptor (AR).

Test [3] deals with T1, Steroid 5-alpha-reductase. Kind of test: Apparent inhibitory constant value for rat prostatic 5-alpha reductase was determined. Type of test: protein assay.
Test [4] has as its target T1, Steroid 5-alpha-reductase. Briefly: Apparent inhibitory constant value for rat prostatic steroid 5alpha reductase was determined. It is filed as protein assay.
Test [5] has as its target T1, Steroid 5-alpha-reductase. Briefly: Inhibition of Steroid 5-alpha-reductase from rat prostate. Type of test: tissue-based, Prostate gland.

For `CCN(CC)C(=O)[C@H]1CC[C@H]2[C@@H]3CC[C@@H]4NC(=O)CC[C@]4(C)[C@H]3CC[C@]12C` (stereo in doubt; 9x), in test [1], the Ki app amounted to 29 nM. The IC50 in test [2] was 41 nM; on Androgen receptor, more than 100000 nM.
`COC(=O)[C@H]1CC[C@H]2[C@@H]3CCC4N(C)C(=O)CC[C@]4(C)[C@H]3CC[C@]12C` (some centres undefined): the Ki app in test [3] amounted to 165 nM. For the same compound, the IC50 in test [2] was determined as 7.6 nM; against Androgen receptor, 120 nM.
Regarding `CN1C(=O)CC[C@@]2(C)C1CC[C@@H]1[C@@H]2CC[C@@]2(C)[C@H]1CC[C@@]21CCCO1` (some centres undefined), the Ki app in test [1] is on record as 24 nM. In addition, the results for the IC50 (in test [2]; against Androgen receptor) were 37 nM and 140 nM, respectively.
For the compound `CC(C(=O)[O-])[C@H]1CC[C@H]2[C@@H]3CCC4N(C)C(=O)CC[C@]4(C)[C@H]3CC[C@]12C.[Na+]` (some centres undefined), the Ki app in test [1] is given as 1.7 nM. Further, the values for the IC50 (in test [2]; against Androgen receptor) were 1.7 nM and 46000 nM, respectively.
Take `CC(O)[C@@]1(O)CC[C@H]2[C@@H]3CCC4N(C)C(=O)CC[C@]4(C)[C@H]3CC[C@@]21C` (some centres undefined): the Ki app in test [1] is reported as 6 nM. The IC50 amounted to 7.6 nM in test [2] and 1900 nM against Androgen receptor.
Take `CC(C)N(C(=O)[C@H]1CC[C@H]2[C@@H]3CCC4NC(=O)CC[C@]4(C)[C@H]3CC[C@]12C)C(C)C` (some centres undefined): the Ki app in test [1] stood at 13 nM. Also, the figures for the IC50 (in test [2]; at Androgen receptor) were 11 nM and more than 100000 nM, respectively.
On to `CCN(CC)C(=O)[C@H]1CC[C@H]2[C@@H]3CC[C@H]4N(C)C(=O)CC[C@]4(C)[C@H]3CC[C@]12C`, for which the Ki app in test [4] worked out at 5 nM. Further, the values for the IC50 (in test [2]; against Androgen receptor) were 11 nM and 2800 nM, respectively.
For the compound `C[C@]12CCC(=O)C=C1CC[C@@H]1[C@@H]2CC[C@@]2(C)[C@H]1CC[C@@]21CCCO1`, the figures for the IC50 (in test [5]; on Androgen receptor) were 1100 nM and 89 nM, respectively.
On the same counts, the results for `C[C@]12CC[C@H]3[C@@H](CCC4=CC(=O)CC[C@@]43C)[C@@H]1CC[C@@H]2C(=O)O` are 660 nM and 8900 nM.
Regarding `C[C@]12CCC(=O)CC1CC[C@@H]1[C@@H]2CC[C@@]2(C)[C@H]1CC[C@@]21CCCO1` (some centres undefined), the IC50 in test [5] was more than 1000 nM; at Androgen receptor, 23 nM.
With `CC(=O)[C@H]1CC[C@H]2[C@@H]3CCC4N(C)C(=O)CC[C@]4(C)[C@H]3CC[C@]12C` (some centres undefined), the IC50 in test [5] was determined as 23 nM; at Androgen receptor, 210 nM.

In general, IC50 refers to the point on the concentration scale where inhibition reaches its midpoint.
